Reference: US4877779A, “2-aminomethylalkynylalkyl-1,3-dithiane derivatives” (priority 1988, dated 1989)
Counter-ions that a name gives are not always drawn. Like-named read-outs stand apart in the source and are kept apart here.

Molecular target: T1, calcium channel (guinea-pig isolated ileal longitudinal smooth muscle) (Cavia porcellus, UniProt O35505)
T1 construct: The longitudinal smooth muscle is carefully separated from the underlying circular muscle layer; from tissue; host or cells: guinea-pig ileal longitudinal smooth muscle
T1 sequence (O35505 whole entry): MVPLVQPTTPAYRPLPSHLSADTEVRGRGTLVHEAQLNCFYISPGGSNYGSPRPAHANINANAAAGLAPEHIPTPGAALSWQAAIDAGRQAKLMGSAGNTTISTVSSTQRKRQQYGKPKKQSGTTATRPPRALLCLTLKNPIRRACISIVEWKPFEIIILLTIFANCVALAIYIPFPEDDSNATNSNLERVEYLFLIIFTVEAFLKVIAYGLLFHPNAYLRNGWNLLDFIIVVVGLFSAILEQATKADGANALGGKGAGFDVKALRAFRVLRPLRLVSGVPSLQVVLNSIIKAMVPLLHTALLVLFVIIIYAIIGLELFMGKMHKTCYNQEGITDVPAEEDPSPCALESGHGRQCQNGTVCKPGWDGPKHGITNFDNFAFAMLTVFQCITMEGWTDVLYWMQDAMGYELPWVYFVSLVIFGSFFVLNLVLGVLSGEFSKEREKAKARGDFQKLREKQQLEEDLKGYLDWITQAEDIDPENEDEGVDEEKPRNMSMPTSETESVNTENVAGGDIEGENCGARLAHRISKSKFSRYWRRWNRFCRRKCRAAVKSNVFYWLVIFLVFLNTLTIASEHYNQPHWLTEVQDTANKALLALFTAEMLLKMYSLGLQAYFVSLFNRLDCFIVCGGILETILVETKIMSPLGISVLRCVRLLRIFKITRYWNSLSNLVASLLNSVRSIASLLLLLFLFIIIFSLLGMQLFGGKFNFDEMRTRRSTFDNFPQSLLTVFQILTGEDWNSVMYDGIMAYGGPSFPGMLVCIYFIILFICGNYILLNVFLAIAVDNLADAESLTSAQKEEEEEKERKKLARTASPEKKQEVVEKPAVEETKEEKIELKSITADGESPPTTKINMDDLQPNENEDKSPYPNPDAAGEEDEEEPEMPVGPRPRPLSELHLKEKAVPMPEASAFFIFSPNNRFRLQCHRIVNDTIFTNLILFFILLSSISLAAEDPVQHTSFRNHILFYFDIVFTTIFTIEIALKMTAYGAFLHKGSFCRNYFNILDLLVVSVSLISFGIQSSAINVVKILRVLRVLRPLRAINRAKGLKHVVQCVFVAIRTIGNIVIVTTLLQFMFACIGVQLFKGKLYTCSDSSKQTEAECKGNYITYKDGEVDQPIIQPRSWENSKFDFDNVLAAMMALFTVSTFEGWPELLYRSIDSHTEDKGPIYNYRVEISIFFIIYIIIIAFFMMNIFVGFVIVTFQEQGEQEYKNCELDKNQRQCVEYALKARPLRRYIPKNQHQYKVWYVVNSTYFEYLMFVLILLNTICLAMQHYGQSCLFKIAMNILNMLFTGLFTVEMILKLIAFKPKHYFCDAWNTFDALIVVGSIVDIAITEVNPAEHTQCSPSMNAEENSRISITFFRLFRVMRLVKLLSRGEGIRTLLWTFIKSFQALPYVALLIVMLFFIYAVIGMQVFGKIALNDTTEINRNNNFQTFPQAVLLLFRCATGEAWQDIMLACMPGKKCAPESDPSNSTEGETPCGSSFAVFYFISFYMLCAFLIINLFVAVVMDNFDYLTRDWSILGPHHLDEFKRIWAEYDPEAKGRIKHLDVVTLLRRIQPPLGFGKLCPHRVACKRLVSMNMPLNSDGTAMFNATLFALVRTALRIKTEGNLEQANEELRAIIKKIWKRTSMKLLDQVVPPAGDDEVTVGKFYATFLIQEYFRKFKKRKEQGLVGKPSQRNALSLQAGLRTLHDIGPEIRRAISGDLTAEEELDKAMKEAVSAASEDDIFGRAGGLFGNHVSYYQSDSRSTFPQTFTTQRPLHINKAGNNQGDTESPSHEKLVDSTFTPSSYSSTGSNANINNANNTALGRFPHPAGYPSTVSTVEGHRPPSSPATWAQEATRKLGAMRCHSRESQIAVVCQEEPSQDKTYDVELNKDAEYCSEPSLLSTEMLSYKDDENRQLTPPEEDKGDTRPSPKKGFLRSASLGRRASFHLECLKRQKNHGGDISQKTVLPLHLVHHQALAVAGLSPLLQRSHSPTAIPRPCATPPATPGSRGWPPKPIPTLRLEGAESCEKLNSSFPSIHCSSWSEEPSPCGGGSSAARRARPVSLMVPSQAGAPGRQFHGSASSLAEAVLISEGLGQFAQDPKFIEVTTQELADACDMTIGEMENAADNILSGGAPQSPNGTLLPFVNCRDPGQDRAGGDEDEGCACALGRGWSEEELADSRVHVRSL
Assay: Calcium Channel Antagonist Activity in Guinea-Pig Isolated Ileal Smooth Muscle
Assay type: cell-based
Source text: Calcium Channel Antagonist Activity in Guinea-Pig Isolated Ileal Smooth Muscle.
Male albino guinea-pigs are sacrificed by stunning and exsanguination. The abdominal cavity is opened and the small intestine is removed, with about 10 cm of the terminal ileum being discarded. The tissue is placed in a dish containing Tyrode's solution (composition, mM: […]; KCl 2.68; NaHCO3 11.90; NaH2 PO4 0.36; MgCl2 0.98; CaCl2 1.77; dextrose 5.55), and cut into three to four segments. A glass rod (6 mm diameter) is carefully inserted into the lumen of each segment, and excess connective tissue or fat is removed. The longitudinal smooth muscle is carefully separated from the underlying circular muscle layer by gently stroking a moist cotton swab on a tangent to shallow, longitudinal incisions made parallel to the mesenteric attachment. Using gentle traction, and taking care to keep the segment moist at all times, the preparation is stripped from the remaining length of the ileal segment (Paton & Zar, J. Physiol. 194, 13; 1968).
Each preparation is suspended in a 10 mL jacketed glass tissue bath containing Tyrode's solution maintained at 37° C. and gassed with 5% CO2 in O2. The preparation is attached by silk thread to a force-displacement transducer. […] The initial resting tension is adjusted to 0.5 g and the preparation equilibrated for 55 minutes prior to experimentation. At the end of this period, the bathing solution is replaced with Ca^2+ -free Tyrode's solution. This solution is prepared by omitting CaCl2. The preparation is washed four times in Ca^2+ -free Tyrode 's to remove any Ca^2+ remaining in the bath, and allowed to equilibrate for a further 20 minutes.
Concentration-response curves to CaCl2 are obtained using the following procedure. Preparations are exposed to a depolarizing concentration of KCl (80 mM) for 6 minutes. At the end of this period CaCl2 is added to the bath cumulatively in the concentration range 0.2-8.0 mM. Successive additions of each Ca^2+ concentration are carried out only when the previous response has reached a plateau. When the maximum response has been attained the bath is again washed (five times) with Ca^2+ -free buffer, and the preparation re-equilibrated for approximately 15 minutes. A second Ca^2+ concentration-response curve is then obtained in the same manner. This second curve serves as control for that tissue.
Further curves are obtained in the presence of increasing concentrations of the test drugs. Where appropriate, the test drug is added to the bath immediately following addition of KCl, and 6 minutes later the concentration-response curve to Ca^2+ is obtained. Each test preparation is exposed to three different concentrations of a test drug.
For each ileal preparation, the control EC50 for Ca^2+ (the concentration producing 50% of the maximum response) is determined from the control concentration-response curve. Calcium blocking activity is defined as a Kb value (the concentration producing a two-fold dextral shift in the control curve), calculated from EC50 ratios in the absence and presence of test drugs.

[1] = Kb = concentration producing a two-fold dextral shift in the control CaCl2 concentration-response curve, KCl (80 mM) depolarized ileal smooth muscle, read-out: Calcium antagonist Kb

| SMILES | Kb [1] | Kb |
| --- | --- | --- |
| CN(CC#CCCC1SCCCS1)Cc1ccccc1 [2-[5-(Benzylmethylaminopent-3-ynyl]-1,3-dithiane Oxalate] | 8020 ± 2740 nM | – |
| CCN(CC)CC#CCCC1(C(c2ccccc2)c2ccccc2)SCCCS1 [2-(5-Diethylaminopent-3-ynyl)-2-benzhydryl-1,3-dithiane Oxalate Hydrate] | 500 nM | – |
| CN(C)CC#CCCC1(C2(O)c3ccccc3Sc3ccc(Cl)cc32)SCCCS1 (centres unmarked) [2-(5-Dimethylaminopent-3-ynyl)-2-(2-chloro-9-hydroxy-9H-thioxanthen-9-yl)-1,3-dithiane] | 2330 ± 180 nM | – |
| CCN(CC)CC#CCCC1(Cc2ccccc2)SCCCS1 [2-(5-Diethylaminopent-3-ynyl)-2-benzyl-1,3-dithiane Oxalate] | 1960 ± 400 nM | – |
| CN(C)CC#CCCC1(C2(O)c3ccccc3Oc3ccccc32)SCCCS1 [2-(5-Dimethylaminopent-3-ynyl)-2-(9-hydroxy-9H-xanthen-9-yl)-1,3-dithiane] | 1150 ± 200 nM | – |
| OC1(C2(CCC#CCN3CCCCC3)SCCCS2)c2ccccc2Sc2ccccc21 [2-(5-Piperidinylpent-3-ynyl)-2-(9-hydroxy-9H-thioxanthen-9-yl)-1,3-dithiane] | 3660 ± 2040 nM | – |
| CN1CCN(CC#CCCC2SCCCS2)CC1 [2-[5-(4-Methylpiperazinyl)pent-3-ynyl]-1,3-dithiane Dioxalate] | > 10000 nM | – |
| CCCN(CC#CCC1(c2ccccc2)SCCCS1)CCC [2-(4-Dipropylaminobut-2-ynyl)-2-phenyl-1,3-dithiane, Oxalate] | 1010 ± 150 nM | – |
| CN(CC#CCCC1(C(O)(c2ccccc2)c2ccccc2)SCCCS1)Cc1ccccc1 [2-[5-(Benzylmethylaminopent-3-ynyl]-2-(α-hydroxy-α-phenylbenzyl)-1,3-dithiane Oxalate Hemihydrate] | 3170 ± 760 nM | – |
| CCN(C)CC#CCCC1(C2(O)c3ccccc3Sc3ccc(Cl)cc32)SCCCS1 (centres unmarked) [2-(5-Ethylmethylaminopent-3-ynyl)-2-(2-chloro-9-hydroxy-9H-thioxanthen-9-yl)-1,3-dithiane] | 2530 ± 1030 nM | – |
| CN(CC#CCCCC1SCCCS1)CCc1ccccc1 [2-[6-(2-Phenylethyl)methylaminohex-4-ynyl]-1,3-dithiane Oxalate] | 4180 ± 1540 nM | – |
| CN(CC#CCCC1SCCCS1)CCc1ccccc1 [2-[5-(2-Phenylethyl)methylaminopent-3-ynyl]-1,3-dithiane Oxalate] | 2270 ± 730 nM | – |
| CCN(CC)CC#CCCC1(C2(O)CCCc3ccccc32)SCCCS1 (centres unmarked) [2-(5-Diethylaminopent-3-ynyl)-2-(1-hydroxy-1,2,3,4-tetrahydro-1-naphthyl)-1,3-dithiane Hemioxalate] | 830 ± 20 nM | – |
| CN(C)CC#CCCC1SCCCS1 [2-(5-Dimethylaminopent-3-ynyl)-1,3-dithiane Oxalate] | > 10000 nM | – |
| CN(CC#CCCC1(c2ccccc2)SCCCS1)CCc1ccccc1 [2-[5-(2-Phenylethyl)methylaminopent-3-ynyl]-2-phenyl-1,3-dithiane Oxalate] | 1740 ± 1080 nM | – |
| CCN(CC)CC#CCCC1(C2(O)c3ccccc3-c3ccccc32)SCCCS1 [2(5-Diethylaminopent-3-ynyl)-2-(9-hydroxy-9H-fluoren-9-yl)-1,3-dithiane] | 500 ± 100 nM | – |
| CN(CC#CCCC1(C(O)(c2ccccc2)c2ccccc2)SCCCS1)CCc1ccccc1 [2-[5-(2-Phenylethyl)methylaminopent-3-ynyl]-2-(α-hydroxy-α-phenylbenzyl)-1,3-dithiane Oxalate Hemihydrate] | 2650 ± 1210 nM | – |
| COc1ccc(CCN(C)CC#CCCC2SCCCS2)cc1OC [2-[5-[2-(3,4-Dimethoxyphenyl)ethyl]methylaminopent-3-ynyl]-1,3-dithiane Oxalate] | 2220 ± 70 nM | – |
| CCN(CC)CC#CCCC1(C(C)(O)c2ccccc2)SCCCS1 (stereo not drawn) [2-(5-Diethylaminopent-3-ynyl)-2-(α-hydroxy-α-methylbenzyl)-1,3-dithiane] | 2510 ± 400 nM | – |
| CN(CC#CCCCC1SCCCS1)Cc1ccccc1 [2-(6-Benzylmethylaminohex-4-ynyl)-1,3-dithiane Oxalate] | 4450 ± 160 nM | – |
| CCN(C)CC#CCCC1(C2(O)c3ccccc3Sc3ccccc32)SCCCS1 [2-(5-Ethylmethylaminopent-3-ynyl)-2-(9-hydroxy-9H-thioxanthen-9-yl)-1,3-dithiane] | 570 ± 120 nM | – |

| SMILES | Kb [1] | Kb |
| --- | --- | --- |
| COc1ccc(CCN(C)CC#CCC2(c3ccccc3)SCCCS2)cc1OC [2-[4-[2-(3,4-dimethoxyphenyl)ethyl]methylaminobut-2-ynyl]-2-phenyl-1,3-dithiane oxalate] | 1170 ± 350 nM | – |
| CN(C)CC#CCCC1(C2(O)c3ccccc3-c3ccccc32)SCCCS1 [2-(5-Dimethylaminopent-3-ynyl)-2-(9-hydroxy-9H-fluoren-9-yl)-1,3-dithiane] | 1810 ± 390 nM | – |
| CN(CC#CCCC1SCCCS1)CCCc1ccccc1 [2-[5-(3-Phenylpropyl)methylaminopent-3-ynyl]-1,3-dithiane Oxalate] | 2980 ± 590 nM | – |
| CCN(CC)CC#CCCC1(C2(O)c3ccccc3Sc3ccc(Cl)cc32)SCCCS1 (centres unmarked) [2-(5-Diethylaminopent-3-ynyl)-2-(2-chloro-9-hydroxy-9H-thioxanthen-9-yl)-1,3-dithiane Oxalate] | 330 ± 50 nM | – |
| CN(CC#CCCC1(C(O)(c2ccccc2)C2CCCCC2)SCCCS1)CCc1ccccc1 (stereo not drawn) [2-[5-(2-Phenylethyl)methylaminopent-3-ynyl]-2-(α-cyclohexyl-α-hydroxybenzyl)-1,3-dithiane Oxalate] | 3750 ± 1250 nM | – |
| COc1ccc(CCN(C)CC#CCCC(O[Si](C)(C)C)(c2ccccc2)C2SCCCS2)cc1OC (centres unmarked) [2-[6-[2-(3,4-Dimethoxyphenyl)ethyl]methylamino-1-phenyl-1-trimethylsilyloxyhex-4-ynyl]-1,3-dithiane] | 570 ± 30 nM | – |
| CCN(C)CC#CCCC1(C2(O)c3ccccc3-c3ccccc32)SCCCS1 [2-(5-Ethylmethylaminopent-3-ynyl)-2-(9-hydroxy-9H-fluoren-9-yl)-1,3-dithiane] | – | 1230 ± 470 nM |
| OC1(C2(CCC#CCN3CCCCC3)SCCCS2)c2ccccc2Sc2ccc(Cl)cc21 (centres unmarked) [2-(5-Piperidinylpent-3-ynyl)-2-(2-chloro-9-hydroxy-9H-thioxanthen-9-yl)-1,3-dithiane] | 6090 ± 1560 nM | – |
| CN1CCN(CC#CCCC2(C3(O)c4ccccc4Oc4ccccc43)SCCCS2)CC1 [2-[5-(4-Methylpiperazinyl)pent-3-ynyl]-2-(9-hydroxy-9H-xanthen-9-yl)-1,3-dithiane Dioxalate] | 488 ± 30 nM | – |
| C(#CCN1CCCCC1)CCC1SCCCS1 [2-(5-Piperidinylpent-3-ynyl)-1,3-dithiane Oxalate] | > 10000 nM | – |
| CCN(CC)CC#CCC1(c2ccccc2)SCCCS1 [2-(4-diethylaminobut-2-ynyl)-2-phenyl-1,3-dithiane oxalate] | 4270 ± 430 nM | – |
| CCN(C)CC#CCCC1(C2(O)c3ccccc3Oc3ccccc32)SCCCS1 [2-(5-Ethylmethylaminopent-3-ynyl)-2-(9-hydroxy-9H-xanthen-9-yl)-1,3-dithiane] | 1510 ± 530 nM | – |
| OC1(C2(CCC#CCN3CCCCC3)SCCCS2)c2ccccc2Oc2ccccc21 [2-(5-Piperidinylpent-3-ynyl)-2-(9-hydroxy-9H-xanthen-9-yl)-1,3-dithiane] | 399 ± 40 nM | – |
| CCN(C)CC#CCCC1SCCCS1 [2-(5-Ethylmethylaminopent-3-ynyl)-1,3-dithiane Oxalate] | > 10000 nM | – |
| CCN(CC)CC#CCCC(O)(c1ccccc1)C1SCCCS1 (centres unmarked) [2-(6-diethylamino-1-hydroxy-1-phenylhex-4-ynyl)-1,3-dithiane oxalate] | 6710 ± 1450 nM | – |
| CCCN(CC#CCCCC1(C2(O)c3ccccc3Sc3ccccc32)SCCCS1)CCC [2-(6-Dipropylaminohex-4-ynyl)-2-(9-hydroxy-9H-thioxanthen-9-yl)-1,3-dithiane] | 770 nM | – |
| CN(CC#CCCC1SCCCS1)Cc1ccc2ccccc2c1 [2-[5-(2-Naphthylmethyl)methylaminopent-3-ynyl]-1,3-dithiane Oxalate] | 8330 ± 2040 nM | – |
| CN(CC#CCCC1(C2(O)c3ccccc3Sc3ccccc32)SCCCS1)CCCc1ccccc1 [2-[5-(3-Phenylpropyl)methylaminopent-3-ynyl]-2-(9-hydroxy-9H-thioxanthen-9-yl)-1,3-dithiane] | 4160 ± 860 nM | – |
| CCCN(CC#CCCCC1(C2(O)c3ccccc3-c3ccccc32)SCCCS1)CCC [2-(6-Dipropylaminohex-4-ynyl)-2-(9-hydroxy-9H-fluoren-9-yl)-1,3-dithiane] | 560 ± 80 nM | – |
| C(#CCN1CCCC1)CCC1SCCCS1 [2-(5-Pyrrolidinylpent-3-ynyl)-1,3-dithiane Oxalate] | > 10000 nM | – |
